The results in this text go back to US9422293B2 (priority 2006, dated 2016).

Molecules are shown by their SMILES. Structures can show the parent of a compound that is named as a salt. Bounds are passed on as bounds.

This assay deals with rat TRPV1 (Rattus norvegicus (Rat), UniProt O35433). The note with it: read-out: Rat IC50.
Chain of rat TRPV1 (O35433 whole entry): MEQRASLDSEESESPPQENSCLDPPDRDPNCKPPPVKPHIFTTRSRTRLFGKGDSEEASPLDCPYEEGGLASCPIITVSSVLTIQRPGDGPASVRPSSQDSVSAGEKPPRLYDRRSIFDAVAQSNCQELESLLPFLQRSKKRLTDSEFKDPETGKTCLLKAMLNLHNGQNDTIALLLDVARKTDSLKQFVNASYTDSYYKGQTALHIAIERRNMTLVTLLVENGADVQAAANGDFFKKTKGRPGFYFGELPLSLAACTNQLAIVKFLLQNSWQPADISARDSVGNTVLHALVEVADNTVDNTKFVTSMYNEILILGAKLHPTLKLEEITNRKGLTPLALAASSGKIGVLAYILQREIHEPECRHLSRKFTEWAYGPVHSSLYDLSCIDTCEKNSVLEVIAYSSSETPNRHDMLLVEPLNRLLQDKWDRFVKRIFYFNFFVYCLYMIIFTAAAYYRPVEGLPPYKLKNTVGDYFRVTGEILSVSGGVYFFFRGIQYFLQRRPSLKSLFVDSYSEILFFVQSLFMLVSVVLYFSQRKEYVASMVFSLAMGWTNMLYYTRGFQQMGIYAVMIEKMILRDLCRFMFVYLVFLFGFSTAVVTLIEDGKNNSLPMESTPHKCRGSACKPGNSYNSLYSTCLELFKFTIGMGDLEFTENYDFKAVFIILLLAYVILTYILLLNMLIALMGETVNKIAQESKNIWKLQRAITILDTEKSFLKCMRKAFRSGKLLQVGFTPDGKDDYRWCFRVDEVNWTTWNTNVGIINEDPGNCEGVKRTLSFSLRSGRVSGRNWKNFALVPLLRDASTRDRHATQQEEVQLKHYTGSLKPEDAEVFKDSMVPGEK

Consider `CC(C)c1nc2c(c(Nc3ccc(C(F)(F)F)cc3F)n1)CCN(c1ncccc1C(F)(F)F)CC2` [Example 155, N-[2-Fluoro-4-(trifluoromethyl)phenyl]-2-(1-methylethyl)-7-[3-(trifluoromethyl)pyridin-2-yl]-6,7,8,9-tetrahydro-5H-pyrimido[4,5-d]azepin-4-amine], for which the IC50 was 3280 nM.
On to `Cc1cc(C(F)(F)F)ccc1Nc1nc(OC2CCCC2)nc2c1CCN(c1ncccc1C(F)(F)F)CC2` [Example 310, 2-(Cyclopentyloxy)-N-[2-methyl-4-(trifluoromethyl)phenyl]-7-[3-(trifluoromethyl)pyridin-2-yl]-6,7,8,9-tetrahydro-5H-pyrimido[4,5-d]azepin-4-amine], for which the IC50 was 70 nM.
As for `CC(C)c1nc2c(c(Nc3ccc(C(C)(C)C)cc3)n1)CCN(c1ncc(N)cc1C(F)(F)F)CC2` [Example 201, 7-[5-Amino-3-(trifluoromethyl)pyridin-2-yl]-N-[4-(1,1-dimethylethyl)phenyl]-2-(1-methylethyl)-6,7,8,9-tetrahydro-5H-pyrimido[4,5-d]azepin-4-amine], the IC50 is 320 nM.
As for `Cc1cncnc1N1CCc2ncnc(Nc3ccc(C(C)(C)C)cc3)c2CC1` [Example 38, (4-tert-Butyl-phenyl)-[7-(5-methyl-pyrimidin-4-yl)-6,7,8,9-tetrahydro-5H-pyrimido[4,5-d]azepin-4-yl]-amine], the IC50 turned out to be 1400 nM.
Next, `CCOc1nc2c(c(Nc3ccc(C(F)(F)F)cc3)n1)CCN(c1ncccc1C(F)(F)F)CC2` [Example 345, 2-(Ethyloxy)-N-[4-(trifluoromethyl)phenyl]-7-[3-(trifluoromethyl)pyridin-2-yl]-6,7,8,9-tetrahydro-5H-pyrimido[4,5-d]azepin-4-amine trifluoroacetic acid salt]: 190 nM; `CS(=O)(=O)c1nc2c(c(Nc3ccc(C(F)(F)F)cc3)n1)CCN(c1ncccc1C(F)(F)F)CC2` [Example 53, [2-Methanesulfonyl-7-(3-trifluoromethyl-pyridin-2-yl)-6,7,8,9-tetrahydro-5H-pyrimido[4,5-d]azepin-4-yl]-(4-trifluoromethyl-phenyl)-amine]: greater than 6700 nM.
Next, `CC(C)(C)c1ccc(Nc2nc(-c3ccccn3)nc3c2CCN(c2ncccc2C(F)(F)F)CC3)cc1` [Example 171, N-[4-(1,1-Dimethylethyl)phenyl]-2-pyridin-2-yl-7-[3-(trifluoromethyl)pyridin-2-yl]-6,7,8,9-tetrahydro-5H-pyrimido[4,5-d]azepin-4-amine trifluoroacetic acid salt]: 80 nM.
Next, `FC(F)(F)c1ccc(Nc2nc(N3CCC3)nc3c2CCN(c2ncccc2C(F)(F)F)CC3)nc1` [Example 197, 2-Azetidin-1-yl-7-[3-(trifluoromethyl)pyridin-2-yl]-N-[5-(trifluoromethyl)pyridin-2-yl]-6,7,8,9-tetrahydro-5H-pyrimido[4,5-d]azepin-4-amine trifluoroacetic acid salt]: 150 nM.
For `CC(C)c1nc2c(c(Nc3ccc(C(F)(F)F)cc3)n1)CCN(c1ccccc1N)CC2` [Example 84, [7-(2-Amino-phenyl)-2-isopropyl-6,7,8,9-tetrahydro-5H-pyrimido[4,5-d]azepin-4-yl]-(4-trifluoromethyl-phenyl)-amine], the IC50 is greater than 20000 nM.
Take `FC(F)(F)c1ccc(Nc2nc(-c3ccncc3)nc3c2CCN(c2ncccc2C(F)(F)F)CC3)cc1Cl` [Example 169, N-[3-Chloro-4-(trifluoromethyl)phenyl]-2-pyridin-4-yl-7-[3-(trifluoromethyl)pyridin-2-yl]-6,7,8,9-tetrahydro-5H-pyrimido[4,5-d]azepin-4-amine]: the half-inhibitory concentration (IC50) worked out at 1010 nM.
The figure for `Cc1cc(C(F)(F)F)ccc1Nc1nc(OC(C)C2CC2)nc2c1CCN(c1ncccc1C(F)(F)F)CC2` (centres unmarked) [Example 325, 2-[(1-Cyclopropylethyl)oxy]-N-[2-methyl-4-(trifluoromethyl)phenyl]-7-[3-(trifluoromethyl)pyridin-2-yl]-6,7,8,9-tetrahydro-5H-pyrimido[4,5-d]azepin-4-amine] is 300 nM.

What is called IC50 is the concentration that inhibits the measured activity by half.
